Reference: US12458021B2, “Microbiocidal derivatives” (SYNGENTA CROP PROTECTION AG, priority 2019, dated 2025)

Tests used:
Pyrenophora teres = Pyrenophora teres / barley / leaf disc preventative (net blotch); type: in vivo; details: foliar, barley leaf segments cv. Hasso, inoculated 2 days after application, assessed 5-7 days after application, read-out: control of Pyrenophora teres (disease control compared to untreated)
In short: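 Barley cv. Hasso leaf discs on agar were sprayed with diluted formulated compound, then inoculated with spore suspension 2 days later. Incubation at 20 °C, 65% rh, 12 h light/dark; disease control versus untreated assessed 5-7 days after application.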

[1] = tested on: Glomerella lagenarium (Colletotrichum lagenarium); test: Glomerella lagenarium (Colletotrichum lagenarium) / liquid culture (anthracnose); type: cell-based; details: Colletotrichum orbiculare, PDB potato dextrose broth, 24° C., 3-4 days after application, read-out: control of Glomerella lagenarium (inhibition of growth, photometric)
In short: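 Fungal growth inhibition measured photometrically 3-4 days post-application at 24° C. Spores were mixed directly into potato dextrose broth and dispensed onto test compound supplied in DMSO.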

[2] = tested on: Mycosphaerella graminicola (Septoria tritici); test: Mycosphaerella graminicola (Septoria tritici) / liquid culture (Septoria blotch); type: cell-based; details: Zymoseptoria tritici, PDB potato dextrose broth, 24° C., 4-5 days after application, read-out: control of Mycosphaerella graminicola (inhibition of growth, photometric)
In short: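 Fungal growth inhibition was read photometrically 4-5 days after application. Compound was dosed from a DMSO solution into liquid cultures of spores in potato dextrose broth, incubated at 24° C.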

[3] = tested on: Magnaporthe grisea (Pyricularia oryzae); test: whole plant or invertebrate; type: in vivo; details: foliar, read-out: control of Magnaporthe grisea (percent disease control compared to untreated)
Alternaria solani = Alternaria solani / tomato / leaf disc (early blight); type: in vivo; details: foliar, tomato leaf disks cv. Baby, inoculated 2 days after application, assessed 5-7 days after application, read-out: control of Alternaria solani (percent disease control compared to untreated)
Protocol: Example B1: Alternaria solani/Tomato/Leaf Disc (Early Blight) Tomato leaf disks cv. Baby are placed on agar in multiwell plates (24-well format) and sprayed with the formulated test compound diluted in water. The leaf disks are inoculated with a spore suspension of the fungus 2 days after application. The inoculated leaf disks are incubated at 23° C./21° C. […] […]-185.

[4] = tested on: Monographella nivalis (Microdochium nivale); test: Monographella nivalis (Microdochium nivale) / liquid culture (foot rot cereals); type: cell-based; details: PDB potato dextrose broth, 24° C., 4-5 days after application, read-out: control of Monographella nivalis (inhibition of growth, photometric)
In short: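 Growth inhibition measured by photometry 4-5 days post-application at 24° C. Compound was dispensed as DMSO solution, then PDB broth containing conidia from cryogenic storage was added.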

Sclerotinia sclerotiorum = Sclerotinia sclerotiorum / liquid culture (cottony rot); type: cell-based; details: PDB potato dextrose broth, mycelia fragments, 24° C., 3-4 days after application, read-out: control of Sclerotinia sclerotiorum (inhibition of growth, photometric)
Protocol: Example B14: Sclerotinia sclerotiorum/Liquid Culture (Cottony Rot) Mycelia fragments of a newly grown liquid culture of the fungus are directly mixed into nutrient broth (PDB potato dextrose broth). After placing a (DMSO) solution of test compound into a microtiter plate (96-well format) the nutrient broth containing the fungal material is added. The test plates are incubated at 24° C. and the inhibition of growth is determined photometrically 3-4 days after application.

[5] = tested on: Blumeria graminis f. sp. tritici (Erysiphe graminis f. sp. tritici); test: Blumeria graminis f. sp. tritici / wheat / leaf disc preventative (powdery mildew on wheat); type: in vivo; details: foliar, wheat leaf segments cv. Kanzler, inoculated 1 day after application, assessed 6-8 days after application, read-out: control of Blumeria graminis f. sp. tritici (percent disease control compared to untreated)
From the text: Example B4: Blumeria graminis f. sp. tritici (Erysiphe graminis f. sp. tritici)/Wheat/Leaf Disc Preventative (Powdery Mildew on Wheat) Wheat leaf segments cv. Kanzler are placed on agar in a multiwell plate (24-well format) and sprayed with the formulated test compound diluted in water. The leaf disks are inoculated by shaking powdery mildew infected plants above the test plates 1 day after application. […] […]-192.

[6] = tested on: Mycosphaerella arachidis (Cercospora arachidicola); test: Mycosphaerella arachidis (Cercospora arachidicola) / liquid culture (early leaf spot); type: cell-based; details: PDB potato dextrose broth, 24° C., 4-5 days after application, read-out: control of Mycosphaerella arachidis (inhibition of growth, photometric)
Protocol: Example B8: Mycosphaerella arachidis (Cercospora arachidicola)/Liquid Culture (Early Leaf Spot) Conidia of the fungus from cryogenic storage are directly mixed into nutrient broth (PDB potato dextrose broth). After placing a (DMSO) solution of test compound into a microtiter plate (96-well format), the nutrient broth containing the fungal spores is added. The test plates are incubated at 24° C. and the inhibition of growth is determined photometrically 4-5 days after application. […] […]-180.

[7] = tested on: Puccinia recondita f. sp. tritici; test: Puccinia recondita f. sp. tritici / wheat / leaf disc preventative (brown rust); type: in vivo; details: foliar, wheat leaf segments cv. Kanzler, inoculated 1 day after application, assessed 7-9 days after application, read-out: control of Puccinia recondita f. sp. tritici, preventative (percent disease control compared to untreated)
In short: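 Wheat leaf segments (cv. Kanzler) on agar were sprayed with formulated compound, then inoculated with spores 1 day later. Segments were incubated at 19 °C, 75% rh with 12 h light/dark. Percent disease control versus untreated was scored 7–9 days after application.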

[8] = tested on: Botryotinia fuckeliana (Botrytis cinerea); test: Botryotinia fuckeliana (Botrytis cinerea) / liquid culture (gray mould); type: cell-based; details: Vogels broth, 24° C., 3-4 days after application, read-out: control of Botryotinia fuckeliana (inhibition of growth, photometric)
Protocol: Example B2: Botryotinia fuckeliana (Botrytis cinerea)/Liquid Culture (Gray Mould) Conidia of the fungus from cryogenic storage are directly mixed into nutrient broth (Vogels broth). After placing a (DMSO) solution of test compound into a microtiter plate (96-well format), the nutrient broth containing the fungal spores is added. The test plates are incubated at 24° C. and the inhibition of growth is determined photometrically 3-4 days after application. […] […]-190.

[9] = tested on: Phaeosphaeria nodorum (Septoria nodorum); test: Phaeosphaeria nodorum (Septoria nodorum) / wheat / leaf disc preventative (glume blotch); type: in vivo; details: Parastagonospora nodorum, foliar, wheat leaf segments cv. Kanzler, inoculated 2 days after application, assessed 5-7 days after application, read-out: control of Phaeosphaeria nodorum (percent disease control compared to untreated)
In short: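 Wheat cv. Kanzler leaf discs on agar were sprayed with formulated compound diluted in water and inoculated with spores 2 days later. Discs were kept at 20° C, 75% rh, 12 h light/dark; percent disease control versus untreated was scored 5-7 days after application.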

COc1cnc(Nc2cc(F)cc(F)c2)nc1C(=O)NC1CCC1(C)C (centres unmarked) [Compound P-10, 2-(3,5-difluoroanilino)-N-(2,2-dimethylcyclobutyl)-5-methoxy-pyrimidine-4-carboxamide]
≥ 80%: pest or weed control at 200 ppm (Pyrenophora teres) | inhibition at 20 ppm [1] | inhibition at 20 ppm [2] | pest or weed control at 200 ppm [3] | pest or weed control at 200 ppm (Alternaria solani) | inhibition at 20 ppm [4] | inhibition at 20 ppm (Sclerotinia sclerotiorum) | pest or weed control at 200 ppm [5]

CC1(C)CCC1NC(=O)c1nc(Nc2cnsc2)ccc1O (centres unmarked) [Compound P-19, N-(2,2-dimethylcyclobutyl)-3-hydroxy-6-(isothiazol-4-ylamino)pyridine-2-carboxamide]
≥ 80%: inhibition at 20 ppm [6] | inhibition at 20 ppm [1] | inhibition at 20 ppm [2] | inhibition at 20 ppm [4] | inhibition at 20 ppm (Sclerotinia sclerotiorum)

COc1ccc(Nc2cc(F)cc(F)c2)nc1C(=O)NCC1(C)CCOC2(CCC2)C1 (centres unmarked) [Compound P-67, 6-(3,5-difluoroanilino)-3-methoxy-N-[(8-methyl-5-oxaspiro[3.5]nonan-8-yl)methyl]pyridine-2-carboxamide]
≥ 80%: inhibition at 20 ppm [6] | inhibition at 20 ppm [1] | inhibition at 20 ppm [2] | pest or weed control at 200 ppm [3] | pest or weed control at 200 ppm (Alternaria solani) | inhibition at 20 ppm [4] | inhibition at 20 ppm (Sclerotinia sclerotiorum) | pest or weed control at 200 ppm [5]

COc1ccc(Nc2cc(F)cc(F)c2)nc1C(=O)NCCc1ccc(OC(F)(F)F)cc1 [Compound P-74, 6-(3,5-difluoroanilino)-3-methoxy-N-[2-[4-(trifluoromethoxy)phenyl]ethyl]pyridine-2-carboxamide]
≥ 80%: inhibition at 20 ppm [6] | inhibition at 20 ppm [1] | inhibition at 20 ppm [2] | pest or weed control at 200 ppm [3] | pest or weed control at 200 ppm (Alternaria solani) | inhibition at 20 ppm [4] | inhibition at 20 ppm (Sclerotinia sclerotiorum) | pest or weed control at 200 ppm [5]

COc1ccc(Nc2cc(F)cc(F)c2)nc1C(=O)NC1(C)CCOC1 (centres unmarked) [Compound P-122, 6-(3,5-difluoroanilino)-3-methoxy-N-(3-methyltetrahydrofuran-3-yl)pyridine-2-carboxamide]
≥ 80%: inhibition at 20 ppm [1] | inhibition at 20 ppm [2] | pest or weed control at 200 ppm [3] | inhibition at 20 ppm [4] | inhibition at 20 ppm (Sclerotinia sclerotiorum) | pest or weed control at 200 ppm [5]

COc1ccc(Nc2cc(F)cc(F)c2)nc1C(=O)NC1(C#N)CCCC1 [Compound P-123, N-(1-cyanocyclopentyl)-6-(3,5-difluoroanilino)-3-methoxy-pyridine-2-carboxamide]
≥ 80%: inhibition at 20 ppm [1] | inhibition at 20 ppm [2] | pest or weed control at 200 ppm [3] | inhibition at 20 ppm [4] | inhibition at 20 ppm (Sclerotinia sclerotiorum) | pest or weed control at 200 ppm [5] | pest or weed control at 200 ppm [7]

COc1ccc(Nc2cc(F)cc(C#N)c2)nc1C(=O)NC(C)(C)C [Compound P-147, N-tert-butyl-6-(3-cyano-5-fluoro-anilino)-3-methoxy-pyridine-2-carboxamide]
≥ 80%: pest or weed control at 200 ppm (Pyrenophora teres) | inhibition at 20 ppm [1] | inhibition at 20 ppm [2] | pest or weed control at 200 ppm [3] | pest or weed control at 200 ppm (Alternaria solani) | inhibition at 20 ppm [4] | inhibition at 20 ppm (Sclerotinia sclerotiorum) | pest or weed control at 200 ppm [5] | pest or weed control at 200 ppm [7]

COc1ccc(Nc2ccc3occc3c2)nc1C(=O)NC(C)(C)C [Compound P-157, 6-(benzofuran-5-ylamino)-N-tert-butyl-3-methoxy-pyridine-2-carboxamide]
≥ 80%: inhibition at 20 ppm [1] | inhibition at 20 ppm [2] | inhibition at 20 ppm [4] | inhibition at 20 ppm (Sclerotinia sclerotiorum)

COc1ccc(Nc2cc(F)cc(F)c2)nc1C(=O)NC(C)(C)C(C)(C)C [Compound P-171, 6-(3,5-difluoroanilino)-3-methoxy-N-(1,1,2,2-tetramethylpropyl)pyridine-2-carboxamide]
≥ 80%: inhibition at 20 ppm [6] | pest or weed control at 200 ppm (Pyrenophora teres) | inhibition at 20 ppm [1] | inhibition at 20 ppm [2] | pest or weed control at 200 ppm (Alternaria solani) | inhibition at 20 ppm [8] | inhibition at 20 ppm [4] | pest or weed control at 200 ppm [5] | pest or weed control at 200 ppm [7] | pest or weed control at 200 ppm [9]

COc1ccc(Nc2cc(F)cc(F)c2)nc1C(=O)NC(C)(C)C(C)C [Compound P-172, 6-(3,5-difluoroanilino)-3-methoxy-N-(1,1,2-trimethylpropyl)pyridine-2-carboxamide]
≥ 80%: inhibition at 20 ppm [6] | inhibition at 20 ppm [1] | inhibition at 20 ppm [2] | pest or weed control at 200 ppm (Alternaria solani) | inhibition at 20 ppm [8] | inhibition at 20 ppm [4] | pest or weed control at 200 ppm [5] | pest or weed control at 200 ppm [7] | pest or weed control at 200 ppm [9]
